# Measured values taken from patent US20240279214A1, “ALPHA4 BETA7 INEGRIN ANTAGONISTS AND USES THEREOF” (XinThera, Inc., priority 2022, published 2024).
# Target: T1, a4b7 integrin interaction with MadCAM-1 (Homo sapiens, UniProt P13612+P26010)
# T1 construct: capture of a4b7 integrin expressing cells, RPMI8866; endogenous in cells; host or cells: RPMI8866
# T1 sequence (P13612 34-1032): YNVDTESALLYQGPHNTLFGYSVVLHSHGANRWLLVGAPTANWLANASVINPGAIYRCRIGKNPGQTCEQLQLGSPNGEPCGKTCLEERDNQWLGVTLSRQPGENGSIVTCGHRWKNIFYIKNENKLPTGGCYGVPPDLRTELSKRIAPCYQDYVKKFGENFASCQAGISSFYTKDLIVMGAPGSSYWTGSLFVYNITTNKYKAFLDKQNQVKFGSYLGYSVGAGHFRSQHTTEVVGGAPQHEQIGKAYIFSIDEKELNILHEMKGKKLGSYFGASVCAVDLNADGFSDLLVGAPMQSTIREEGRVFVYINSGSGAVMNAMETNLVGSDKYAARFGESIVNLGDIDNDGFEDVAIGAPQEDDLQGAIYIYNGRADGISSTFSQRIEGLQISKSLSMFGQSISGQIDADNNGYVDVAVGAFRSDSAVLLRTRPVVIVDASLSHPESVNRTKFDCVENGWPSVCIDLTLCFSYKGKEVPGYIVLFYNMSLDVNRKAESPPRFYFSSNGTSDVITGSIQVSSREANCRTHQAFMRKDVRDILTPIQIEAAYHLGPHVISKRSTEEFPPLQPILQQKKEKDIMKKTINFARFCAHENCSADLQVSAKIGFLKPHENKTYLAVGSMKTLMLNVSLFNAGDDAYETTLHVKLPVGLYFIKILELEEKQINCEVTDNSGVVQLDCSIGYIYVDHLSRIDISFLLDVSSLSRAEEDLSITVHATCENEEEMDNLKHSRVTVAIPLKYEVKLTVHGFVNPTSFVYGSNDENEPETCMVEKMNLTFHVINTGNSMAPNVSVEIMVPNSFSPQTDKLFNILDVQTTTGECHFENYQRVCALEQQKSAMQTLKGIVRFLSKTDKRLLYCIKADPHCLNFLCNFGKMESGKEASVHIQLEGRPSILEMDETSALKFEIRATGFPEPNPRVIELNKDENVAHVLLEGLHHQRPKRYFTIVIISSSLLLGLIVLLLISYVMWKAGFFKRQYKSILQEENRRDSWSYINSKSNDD
# T1 sequence (P26010 20-798): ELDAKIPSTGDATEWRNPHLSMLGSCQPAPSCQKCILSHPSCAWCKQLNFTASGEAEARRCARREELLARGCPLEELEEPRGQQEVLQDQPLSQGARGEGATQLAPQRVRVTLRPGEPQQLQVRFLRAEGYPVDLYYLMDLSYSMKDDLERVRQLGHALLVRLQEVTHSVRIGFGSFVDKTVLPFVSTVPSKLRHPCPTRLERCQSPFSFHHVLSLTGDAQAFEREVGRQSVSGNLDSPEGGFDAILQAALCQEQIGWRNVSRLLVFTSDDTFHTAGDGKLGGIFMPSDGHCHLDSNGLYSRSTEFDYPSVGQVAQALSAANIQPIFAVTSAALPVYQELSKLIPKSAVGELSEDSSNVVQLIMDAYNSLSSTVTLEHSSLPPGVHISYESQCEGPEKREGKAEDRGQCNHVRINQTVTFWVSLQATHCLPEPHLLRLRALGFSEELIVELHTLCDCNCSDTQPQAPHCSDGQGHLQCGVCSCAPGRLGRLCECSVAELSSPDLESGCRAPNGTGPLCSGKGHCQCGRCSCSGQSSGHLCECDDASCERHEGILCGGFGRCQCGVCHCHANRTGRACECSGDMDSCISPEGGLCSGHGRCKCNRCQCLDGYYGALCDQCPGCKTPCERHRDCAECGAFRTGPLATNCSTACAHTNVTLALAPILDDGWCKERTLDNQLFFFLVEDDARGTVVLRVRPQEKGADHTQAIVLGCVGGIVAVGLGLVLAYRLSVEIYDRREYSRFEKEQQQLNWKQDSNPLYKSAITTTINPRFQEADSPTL
# Test: a4b7 Cell Capture Assay (RPMI8866 cells on MAdCAM-1 Fc coated plates)
# Assay type: cell-based
# Conditions: 50% human serum, 1 mM MgCl2, 1 hour incubation, CellTiter-Glo luminescence, read-out: a4B7 cell capture assay RMPI8866-MadCAM EC50
# Method in brief: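 RPMI8866 cells (1.0×10^6 cells/mL) in 1 mM MgCl2, 25 mM HEPES, 50% human serum were added to plates coated with human MAdCAM-1–IgG1 Fc (1.0 μg/mL) and exposed to compound (9-point, 0.08–1000 nM, 0.1% DMSO) for 1 h at 37 °C. Bound cells were read by CellTiter-Glo luminescence. IC50 came from 4-parameter fit of normalized % inhibition.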
row,Structure (SMILES),EC50
1,"Cc1cccc2c1-c1cc(F)c(F)c(c1)[C@H](CC(=O)O)NC(=O)[C@@H](n1cc(CCN3CC(F)C3)c(C(F)(F)F)cc1=O)c1cc(ccc1F)O2 (relative stereo) [Example 31, [(14R*,17S)-12,19,20-trifluoro-14-{5-[2-(3-fluoroazetidin-1-yl)ethyl]-2-oxo-4-(trifluoromethyl)pyridin-1-yl}-3-methyl-15-oxo-8-oxa-16-azatetracyclo[16.3.1.1^{9,13}.0^{2,7}]tricosa-1(22),2(7),3,5,9,11,13(23),18,20-nonaen-17-yl]acetic acid]",1.9 nM
2,"Cc1cccc2c1-c1cc(c(F)c(C(F)(F)F)c1)[C@H](CC(=O)O)NC(=O)[C@@H](n1cc(Cl)c(C(F)(F)F)cc1=O)c1cccc(c1)O2 [Example 39, [(17S)-14-[5-chloro-2-oxo-4-(trifluoromethyl)pyridin-1-yl]-19-fluoro-3-methyl-15-oxo-20-(trifluoromethyl)-8-oxa-16-azatetracyclo[16.3.1.1^{9,13}.0^{2,7}]tricosa-1(22),2(7),3,5,9,11,13(23),18,20-nonaen-17-yl]acetic acid]",> 100 nM
3,"Cc1cc2cc(c1F)[C@H](CC(=O)O)NC(=O)[C@@H](n1cc(CCN3CC(F)C3)c(C(F)(F)F)cc1=O)c1cc(ccc1F)Oc1cc(C(F)(F)F)cc(C)c1-2 (single isomer, unassigned) [Example 64]",6.4 nM
4,"Cc1cc2cc(c1F)[C@H](CC(=O)O)NC(=O)[C@H](n1cc(CCN3CC(F)C3)c(C(F)(F)F)cc1=O)c1cccc(c1)Cc1cccc(C)c1-2 (relative stereo) [Example 2, [(14R*,17S)-19-fluoro-14-{5-[2-(3-fluoroazetidin-1-yl)ethyl]-2-oxo-4-(trifluoromethyl)pyridin-1-yl}-3,20-dimethyl-15-oxo-16-azatetracyclo[16.3.1.1^{9,13}.0^{2,7}]tricosa-1(22),2(7),3,5,9,11,13(23),18,20-nonaen-17-yl]acetic acid]",76 nM
5,"Cc1cc2cc(c1F)[C@H](CC(=O)O)NC(=O)[C@@H](n1cc(CCN3CC(F)C3)c(C(F)(F)F)cc1=O)c1cc(ccc1Cl)COc1cccc(C)c1-2 (single isomer, unassigned) [Example 58]",7 nM
6,"Cc1cc2cc(c1F)[C@H](CC(=O)O)NC(=O)[C@@H](n1cc(CCN3CCC(F)(F)CC3)c(C(F)(F)F)cc1=O)c1cc(ccc1F)Oc1cccc(C)c1-2 (single isomer, unassigned) [Example 63]",10 nM
7,"Cc1cc2cc(c1F)[C@H](CC(=O)O)NC(=O)[C@@H](n1cc(CCN3CC(F)C3)c(C(F)(F)F)cc1=O)c1cc(ccc1Cl)Oc1cccc(C)c1-2 (relative stereo) [Example 59, [(14R*,17S)-12-chloro-19-fluoro-14-{5-[2-(3-fluoroazetidin-1-yl)ethyl]-2-oxo-4-(trifluoromethyl)pyridin-1-yl}-3,20-dimethyl-15-oxo-8-oxa-16-azatetracyclo[16.3.1.1^{9,13}.0^{2,7}]tricosa-1(22),2(7),3,5,9,11,13(23),18,20-nonaen-17-yl]acetic acid]",1.2 nM
8,"Cc1cc(C)c2c(c1)Oc1ccc(F)c(c1)[C@H](n1cc(CCN3CC(F)C3)c(C(F)(F)F)cc1=O)C(=O)N[C@@H](CC(=O)O)c1cc-2cc(C)c1F (relative stereo) [Example 27, [(14R*,17S)-12,19-difluoro-14-{5-[2-(3-fluoroazetidin-1-yl)ethyl]-2-oxo-4-(trifluoromethyl)pyridin-1-yl}-3,5,20-trimethyl-15-oxo-8-oxa-16-azatetracyclo[16.3.1.1^{9,13}.0^{2,7}]tricosa-1(22),2(7),3,5,9,11,13(23),18,20-nonaen-17-yl]acetic acid]",3.7 nM
9,"Cc1cc2cc(c1F)[C@H](CC(=O)O)NC(=O)[C@@H](n1cc(CCN3CC(F)C3)c(C(F)(F)F)cc1=O)c1cc(ccc1F)COc1cccc(C)c1-2 (relative stereo) [Example 36, [(15R*,18S)-13,20-difluoro-15-{5-[2-(3-fluoroazetidin-1-yl)ethyl]-2-oxo-4-(trifluoromethyl)pyridin-1-yl}-3,21-dimethyl-16-oxo-8-oxa-17-azatetracyclo[17.3.1.1^{10,14}.0^{2,7}]tetracosa-1(23),2(7),3,5,10,12,14(24),19,21-nonaen-18-yl]acetic acid]",5.2 nM
10,"Cc1cc2cc(c1F)[C@H](CC(=O)O)NC(=O)[C@@H](n1cc(CCN3CC(F)(F)C3)c(C(F)(F)F)cc1=O)c1cc(ccc1F)Oc1cccc(C)c1-2 (single isomer, unassigned) [Example 45]",1.8 nM
11,"Cc1cc2cc(c1F)[C@H](CC(=O)O)NC(=O)[C@@H](n1cc(CCN3CC(F)C3)c(C(F)(F)F)cc1=O)c1cc(ccc1F)COc1nn(CC3CC3)cc1-2 (single isomer, unassigned) [Example 70]",> 100 nM
12,"Cc1cc2cc(c1F)[C@H](CC(=O)O)NC(=O)[C@@H](n1cc(CCN3CC(F)C3)c(C(F)(F)F)cc1=O)c1cc(cc(Cl)c1F)Oc1cccc(C)c1-2 [Example 38, [(14S,17S)-11-chloro-12,19-difluoro-14-{5-[2-(3-fluoroazetidin-1-yl)ethyl]-2-oxo-4-(trifluoromethyl)pyridin-1-yl}-3,20-dimethyl-15-oxo-8-oxa-16-azatetracyclo[16.3.1.1^{9,13}.0^{2,7}]tricosa-1(22),2(7),3,5,9,11,13(23),18,20-nonaen-17-yl]acetic acid]",1.3 nM
13,"Cc1cc2cc(c1F)[C@H](CC(=O)O)NC(=O)[C@@H](n1cc(CCN3CC(F)C3)c(C(F)(F)F)cc1=O)c1cc(cc(C(F)(F)F)c1)Oc1cccc(C)c1-2 (relative stereo) [Example 22, [(14R*,17S)-19-fluoro-14-{5-[2-(3-fluoroazetidin-1-yl)ethyl]-2-oxo-4-(trifluoromethyl)pyridin-1-yl}-3,20-dimethyl-15-oxo-11-(trifluoromethyl)-8-oxa-16-azatetracyclo[16.3.1.1^{9,13}.0^{2,7}]tricosa-1(22),2(7),3,5,9,11,13(23),18,20-nonaen-17-yl]acetic acid]",9.9 nM
14,"Cc1cc2cc(c1F)[C@H](CC(=O)O)NC(=O)[C@@H](n1c(=O)c3ccncc3n(C)c1=O)c1cc(ccc1F)Oc1cccc(C)c1-2 (single isomer, unassigned) [Example 69]",0.38 nM
15,"Cc1cc2c(F)c(c1F)[C@H](CC(=O)O)NC(=O)[C@@H](n1cc(CCN3CC(F)C3)c(C(F)(F)F)cc1=O)c1cc(ccc1F)Oc1cccc(C)c1-2 (single isomer, unassigned) [Example 77]",15 nM
16,"Cc1ccc2cc1[C@H](n1cc(CCN3CC(F)C3)c(C(F)(F)F)cc1=O)C(=O)N[C@@H](CC(=O)O)c1cc(cc(C)c1F)-c1c(C)cccc1O2 (single isomer, unassigned) [Example 71]",3.5 nM
17,"Cc1cccc2c1-c1cc(c(C)s1)[C@H](CC(=O)O)NC(=O)[C@@H](n1cc(CCN3CC(F)C3)c(C(F)(F)F)cc1=O)c1cc(ccc1F)CO2 (single isomer, unassigned) [Example 75]",> 100 nM
18,"Cc1cc2cc(c1F)[C@H](CC(=O)O)NC(=O)[C@@H](n1cc(CCN3CC(F)C3)c(C(F)(F)F)cc1=O)c1cc(ccc1F)Oc1cc(C(C)(C)O)cc(C)c1-2 (single isomer, unassigned) [Example 48]",0.5 nM
